The text below walks through data of patent US20050014722A1, “Process for preparing n-acylated lysophosphatidylcholine and pharmaceutical composition for treatment of metabolic bone disease comprising said compounds” (priority 2001, published 2005).

Data set [1] has as its system differentiation of osteoclasts in co-culture of bone marrow cells and osteoblasts. The experiment in a line: Osteoclast differentiation in co-culture of osteoblasts and bone marrow cells (TRAP staining). The class given is cell-based, ICR mice. The conditions noted are these: for Inhibitory activity on osteoclast differentiation in co-culture of bone marrow cells and osteoblasts: 4 μM; for TRAP-positive osteoclast cell number: co-culture, vitamin D3 and PGE2, 6 days, control 397+36.75. On the procedure:
(§1) Primary osteoblasts, bone marrow cells and osteoclast precursor cells were cultured in α-Minimum Essential Medium (α-MEM, Gibco BRL) supplemented with 10% (v/v) fetal bovine serum (Gibco BRL), and 1× antibiotics containing penicillin/streptomycin (Gibco BRL).
Until now, osteoclast cell lines have not been established, making it difficult to study differentiation of osteoclasts. Osteoclasts originate from hematopoietic stem cells derived from bone marrow, and differentiate with the help of osteoblasts/stromal cells. For these reasons, the co-culture system of osteoblasts and bone marrow cells is used for differentiation of osteoclasts. In these Experimental Examples, a differentiation system of bone marrow cells to osteoclasts was established by co-culture of osteoblasts and bone marrow cells, and, in this system, the CHJ-0014 compound was evaluated for its inhibitory effect on differentiation of osteoclasts.
After sacrificing one-day postnatal ICR mice and disinfecting them in 70% ethanol, calvarias were collected using surgical scissors and forceps, cut into several pieces, and transferred into 3× HBSS contained in a 60-mm culture dish. 0.1% collagenase (Gibco BRL) and 0.2% dispase (Boehringer Mannheim) were added to the solution, followed by incubation at 37° C. for 15 min. The treatment of calvarias with collagenase and dispase was repeated 4 more times. From the second treatment of calvarias with collagenase and dispase, the solution was centrifuged after each treatment at 1600 rpm for 5 min to harvest cells, thereby collecting osteoblasts. The collected osteoblasts were plated onto a 100-mm culture dish at a density of about 1-2×10^6 cells, and cultured in 15 ml of α-MEM supplemented with 10% FBS for 3 days. Thereafter, the proliferated osteoblasts were aliquotted into cryo-vials, and stored in liquid nitrogen until use in co-culture of osteoblasts and bone marrow cells.
(§2) After sacrificing 6-7 week ICR female mice by cervical dislocation and disinfecting their rear legs in 70% ethanol, tibias were isolated aseptically. The isolated tibias were placed into 3× HBSS (Gibco BRL), and soft tissue was completely removed. Both ends of tibias were cut, and 1×α-MEM was injected into bone marrow and then sucked up using a 1 ml syringe, collecting bone marrow cells. After sufficient suspending by pipetting, the collected bone marrow cells were centrifuged at 1600 rpm for 5 min to harvest cells. The resulting pellet (bone marrow cells and erythrocytes) was suspended in about 15-20 ml of ACK buffer (155 mM NH4Cl, 11 mM KHCO3, 0.01 mM EDTA). After incubation for 2 min, phosphate buffer was added to the cell suspension to minimize damage to bone marrow cells and lyse erythrocytes.
(§3) Thereafter, the cell suspension was centrifuged (1600 rpm, 5 min), and the resulting cell pellet was suspended in 10% FBS-containing α-MEM.
The isolated and cultured osteoblasts and bone marrow cells were co-cultured, as follows. Bone marrow cells and osteoblasts were plated onto a 48-well plate at a density of 2×10^5 cells and 2×10^4 cells per well, respectively, and co-cultured in 10% FBS-containing x-MEM. After adding vitamin D3 (10^−8 M) and PGE 2 (Prostaglandin E 2, 10^−6 M) to the culture medium, the cells were treated with the CHJ-0014 compound at various concentrations of 1.65 μM, 3.3 μM and 6.6 μM. A co-culture group not treated with the CHJ-0014 compound was used as a control. When the culture medium was exchanged with a fresh medium after incubation for 3 days, vitamin D3 (10^−8 M) and PGE 2 (10^−6 M) were again added to the medium, and the CHJ-0014 compound was also added to the medium at the same concentrations as above.
After incubation for 6 days, the culture medium was removed, and completely differentiated osteoclasts were fixed with 10% formalin for 5 min. After removing formalin, the fixed osteoclasts were treated with 0.1% Triton X-100 for 10 sec. […]

For data set [2], the system named is differentiation of osteoclasts in culture of bone marrow cells. The experiment in a line: Osteoclast differentiation in culture of bone marrow cells induced by ODF and M-CSF (TRAP staining). In kind it is cell-based, ICR mice. The conditions noted are these: for TRAP-positive osteoclast cell number: bone marrow cells, ODF 50 ng/ml, M-CSF 30 ng/ml, control 240±44. The procedure: as §1, §2, §3
In this test, to evaluate this possible scenario, only bone marrow cells were treated with a recombinant ODF protein and inhibitory activity of the CHJ-0014 compound on osteoclast differentiation was investigated in culture of only bone marrow cells. Bone marrow cells, isolated according to the same method as in Experimental Example 1, were plated onto a 48-well plate at a density of 4×10^5 cells, and cultured in 10% FBS-containing α-MEM. After adding ODF (50 ng/ml) and M-CSF (30 ng/ml) to the medium, the cells were treated with the CHJ-0014 compound at various concentrations of 0.825 μM, 1.65 μM, 3.3 μM and 6.6 μM. When the culture medium was exchanged with a fresh medium after incubation for 3 days, the cells were again treated with the identical amount of ODF, M-CSF and CHJ-0014. After incubation for 6 days, the culture medium was exchanged with a fresh medium, and the cells were further cultured for 2 more days.
Completely differentiated osteoclasts were identified by TRAP staining. TRAP staining was carried out using the Leukocyte Acid Phosphatase Kit (Sigma, Cat. No. 387-A). The culture medium was removed, and completely differentiated osteoclasts were fixed with 10% formalin for 5 min. After removing formalin, the fixed osteoclasts were treated with 0.1% Trypton X-100 for 10 sec. After removing Trypton X-100, the cells were stained with a TRAP staining solution in the kit for 5 min. After eliminating the TRAP staining solution, the cells were washed with distilled water twice, dried, and TRAP-positive osteoclasts were counted under an optical microscope (×100).

Data set [3] relates to osteoclast precursor cells. In words: Differentiation of osteoclast precursor cells isolated from bone, ODF and M-CSF (TRAP staining). The class given is cell-based, ICR mice. The conditions noted are these: for TRAP-positive osteoclast cell number: osteoclast precursor cells, ODF 100 ng/ml, M-CSF 30 ng/ml, day 9, control 344±43.7. The procedure:
as §1
Osteoclast progenitors derived from bone marrow cells migrate eventually to bone, differentiate to osteoclast precursors therein, and further differentiate to active osteoclasts having bone resorption ability and participate in bone resorption. That is, osteoclast precursor cells present in bone are at a different differentiation stage from the active osteoclasts. Recently, a cytokine playing a critical role in osteoclast differentiation was identified to be ODF (also called OPGL or RANKL), and a recombinant ODF protein can be produced on a large scale, thereby facilitating osteoclast differentiation by primary cell culture.
Osteoclast precursor cells were isolated from […]. After sacrificing 5-6 week ICR female mice by cervical dislocation and disinfecting their rear legs in 70% ethanol, tibias and femurs were isolated aseptically. After removing soft tissue according to the same method as in Example 2 from the isolated tibias and femurs, 3× HBSS (Gibco BRL) was injected into bone marrow several times, thereby collecting bone marrow cells, as follows. Bone was cut into small pieces using a surgical scissor, and incubated in a collagenase solution (1 mg/ml collagenase type II, 0.05% trypsin, 4 mM EDTA, Gibco BRL) contained in a culture dish at 37° C. for 15 min. The collagenase treatment was carried out 4 more times. After being treated three times, bone pieces were further cut into a smaller size. After one more treatment with collagenase, the bone pieces were washed with 3× HBSS five times. After completely removing the enzyme solution by centrifugation, the bone pieces were suspended in pre-cooled α-MEM, and placed onto ice for 15 min. After vortexing for 1 min, an equal volume of α-MEM was added to the bone suspension, followed by incubation on ice for 15 min. The bone suspension was filtered through a sterilized mass, and the obtained cells were cultured in 10% FBS-containing α-MEM.
The isolated and cultured osteoclast precusor cells were plated onto a 48-well plate at a density of 0.5×10^6 cells. After adding ODF (100 ng/ml) and M-CSF (30 ng/ml) to the medium, the cells were treated with the CHJ-0014 compound at various concentrations of 0.825 μM, 1.65 μM, 3.3 μM and 6.6 μM. A group not treated with the CHJ-0014 compound was used as a control. When the culture medium was exchanged with a fresh medium after incubation for 3 days, the cells were again treated with the identical amount of ODF, M-CSF and CHJ-0014. On day 6 after culturing, the culture medium was exchanged with a fresh medium, according to the same method as in on day 3. On day 9, TRAP staining was carried out, and TRAP-positive osteoclasts were counted under an optical microscope (×100).

The next data set concerns osteoblasts. In words: Cytotoxicity by MTT assay, osteoblasts. In kind it is cell-based, ICR mice. The conditions noted are these: 6.6 μM, 24 hrs. A general note: Formazan colour is commonly taken as a measure of viable cells.
For the next data set, the system named is murine bone marrow cells. In words: Cytotoxicity by MTT assay, bone marrow cells. In kind it is cell-based. The conditions noted are these: 6.6 μM, 24 hrs.
In the next data set the test system is peritoneal macrophages. In words: Cytotoxicity by MTT assay, peritoneal macrophages. The conditions noted are these: 6.6 μM, 24 hrs. In kind it is cell-based.
Data set [4] concerns human embryonic kidney cell line 293T. The experiment in a line: Cytotoxicity by MTT assay, 293T cells. The conditions noted are these: 6.6 μM, 24 hrs. In kind it is cell-based.
Data set [5] relates to transcription factor NF-κB. In words: NF-κB activity by EMSA (electrophoresis mobility shift assay) in osteoclasts. The class given is cell-based. The conditions noted are these: osteoclast nuclear extract. On the procedure: The CHJ-0014 compound was investigated for its inhibitory effect on the activity of the transcription factor NF-κB participating in osteoclast differentiation by performing EMSA (electrophoresis mobility shift assay). Osteoclasts were prepared according to the same method as in Experimental Experiment 3, and incubated in hypotonic lysis buffer (10 mM HEPES, pH 7.9, 1.5 mM MgCl2, 10 mM KCl, 0.5 mM DTT, 0.5 mM PMSF) on ice for 10 min. The osteoclast-containing solution was transferred into a microcentrifuge, supplemented with 0.1% NP40, and incubated for 15 min with occasional agitation. After centrifugation (4,000 rpm, 15 min), the resulting cell pellet was suspended in 15 μl of high salt buffer (20 mM HEPES, pH 7.9, 420 mM NaCl, 25% glycerol, 1.5 mM MgCl2, 0.2 mM EDTA, 0.5 mM PMSF, 0.5 mM DTT), and placed onto ice for 20 min. 75 μl of storage buffer (20 mM HEPES, pH 7.9, 100 mM NaCl, 20% glycerol, 0.2 mM EDTA, 0.5 mM PMSF, 0.5 mM DTT) was added to the cell suspension, and incubated with agitation for 10 sec. After centrifugation (14,000 rpm, 20 min), the resulting supernatant was subjected to protein quantitative assay. Protein assay was performed using a DC Protein Assay Kit (Bio-Rad).
A NF-κB-specific oligomer (5′-AGTTGAGGGGACTTTCCCA GGC-3′, Santa Cruz) was radiolabeled using [γ-^32P]ATP and […], and used as a probe. […]
On the technique in general: In EMSA bound probe runs differently from free probe, usually more slowly.

As for `CCCCCCCCCCCCCCCCCC(=O)NC(CO)COP(=O)([O-])OCC[N+](C)(C)C` [CHJ-0013, N-stearoyl-O-phosphocholine-L-serine methylhydroxy], the “Inhibitory activity on osteoclast differentiation in co-culture of bone marrow cells and osteoblasts” value in data set [1] is “inhibit osteoclast differentiation”.
As to `CCCCCCCCCCCCCCCCCC(=O)NC(CO)COP(=O)(O)OCC[N+](C)(C)C` [CHJ-0014, N-stearoyl-O-phosphocholine-D-serine methylhydroxy], the “TRAP-positive osteoclast cell number” value in data set [1] (1.65 μM) is given as 80±6.1; in data set [1] (3.3 μM), 46±4.7; in data set [1] (6.6 μM) it was 16±6.4; in data set [2] (0.825 μM), 185±12.9; in data set [2] (1.65 μM), 172+9.3; in data set [2] (3.3 μM) it was 87+3.5. The “TRAP-positive osteoclast cell number” value in data set [2] (6.6 μM) is listed as 36+3.6; in data set [3] (0.825 μM), 318±19.3; in data set [3] (1.65 μM) it was 318±50.4; in data set [3] (3.3 μM) it was 267±24; in data set [3] (6.6 μM), 152±29.1. In addition, in data set [1], the “Inhibitory activity on osteoclast differentiation in co-culture of bone marrow cells and osteoblasts” value is reported as “inhibit osteoclast differentiation”. Also, the “Effect on differentiation of osteoclasts in co-culture of bone marrow cells and osteoblasts” value in data set [1] (1.65-6.6 μM) was “inhibits differentiation of osteoclasts in co-culture of bone marrow cells and osteoblasts in a dose-dependent manner”. Further, in data set [2] (0.825-6.6 μM), the “Effect on osteoclast differentiation induced by ODF in bone marrow cells” value is “inhibits osteoclast differentiation induced by ODF in bone marrow cells in a dose-dependent manner”. Moreover, the “Effect on osteoclast differentiation during differentiation of osteoclast precursors isolated from bone” value in data set [3] (0.825-6.6 μM) is “inhibits osteoclast differentiation during differentiation of osteoclast precursors isolated from bone in a dose-dependent manner”. The “Cytotoxicity (MTT)” value (with osteoblasts; in the data set with murine bone marrow cells; with peritoneal macrophages; in data set [4]) was “did not show cytotoxicity” in each case. The “Effect on activation of the transcription factor NF-κB by osteoclast differentiation factor (ODF)” value in data set [5] is listed as “suppress activation of the transcription factor NF-κB”.
